Measurements: the supplement of paper PMC13380429

What was measured:
Settings in all cases: 72 h
[1] = test system: Vero E6; assay: relative viability EC50 (midpoint between 100% and the lowest measured viability); higher = less toxic
[2] = test system: U2OS; assay: as above
[3] = test system: Calu-3; assay: as above
[4] = test system: HepG2; assay: as above
[5] = test system: Caco-2; assay: as above
[6] = test system: Vero E6; assay: cell viability relative to DMSO; higher = less toxic
[7] = test system: U2OS; assay: as above
[8] = test system: Calu-3; assay: as above
[9] = test system: HepG2; assay: as above
[10] = test system: Caco-2; assay: as above
[11] = test system: Vero E6; assay: drug sensitivity score (DSS) for viability; higher = more toxic; extreme values may be limits of the assay
[12] = test system: U2OS; assay: as above
[13] = test system: Calu-3; assay: as above
[14] = test system: HepG2; assay: as above
[15] = test system: Caco-2; assay: as above

With O=C(O)C1=CCCN(CCON=C(c2ccccc2)c2ccccc2)C1 [NNC-711] the “relative viability EC50” value [1] was > 10 µM, the “relative viability EC50” value [2] was > 10 µM and the “relative viability EC50” value [3] was > 10 µM. The “relative viability EC50” value [4] was > 10 µM, the “relative viability EC50” value [5] was > 10 µM and the cell viability ([6]; 1 nM) was 90.4%. The cell viability ([6]; 10 nM) was 103%, the cell viability ([6]; 100 nM) was 101% and the cell viability ([6]; 1000 nM) was 97.4%. It also gave a cell viability ([6]; 10000 nM) of 114%, a cell viability ([7]; 1 nM) of 98.7% and a cell viability ([7]; 10 nM) of 95.5%. The cell viability ([7]; 100 nM) was 103%, the cell viability ([7]; 1000 nM) was 101% and the cell viability ([7]; 10000 nM) was 98.5%. The cell viability ([8]; 1 nM) was 108%, the cell viability ([8]; 10 nM) was 100% and the cell viability ([8]; 100 nM) was 102%. For the same molecule, the cell viability ([8]; 1000 nM) was 101%, the cell viability ([8]; 10000 nM) was 98.9% and the cell viability ([9]; 1 nM) was 93.4%. The cell viability ([9]; 10 nM) was 100%, the cell viability ([9]; 100 nM) was 99.1% and the cell viability ([9]; 1000 nM) was 109%. The cell viability ([9]; 10000 nM) was 101%, the cell viability ([10]; 1 nM) was 102% and the cell viability ([10]; 10 nM) was 95.6%. For the same molecule, the cell viability ([10]; 100 nM) was 104%, the cell viability ([10]; 1000 nM) was 96% and the cell viability ([10]; 10000 nM) was 101%. For the same molecule, the drug sensitivity score [11] was 0, the drug sensitivity score [12] was 0 and the drug sensitivity score [13] was 0. It also gave a drug sensitivity score [14] of 0 and a drug sensitivity score [15] of 0.

COc1cccc(-c2cc(F)ccc2[C@H]2Cc3nc(N)nc(C)c3C(=O)N2)n1 [NVP-HSP990] was tested, and the “relative viability EC50” value [1] was 0.0697 µM, the “relative viability EC50” value [2] was 0.0446 µM and the “relative viability EC50” value [3] was 0.0427 µM. For the same molecule, the “relative viability EC50” value [4] was 0.0343 µM, the “relative viability EC50” value [5] was 0.0094 µM and the cell viability ([6]; 1 nM) was 101%. It also gave a cell viability ([6]; 10 nM) of 112%, a cell viability ([6]; 100 nM) of 47.3% and a cell viability ([6]; 1000 nM) of 27.8%. It also gave a cell viability ([6]; 10000 nM) of 26.6%, a cell viability ([7]; 1 nM) of 102% and a cell viability ([7]; 10 nM) of 94.9%. It also gave a cell viability ([7]; 100 nM) of 19.3%, a cell viability ([7]; 1000 nM) of 2.5% and a cell viability ([7]; 10000 nM) of 3.2%. The cell viability ([8]; 1 nM) was 108%, the cell viability ([8]; 10 nM) was 97.1% and the cell viability ([8]; 100 nM) was 43.5%. The cell viability ([8]; 1000 nM) was 34.4%, the cell viability ([8]; 10000 nM) was 36.2% and the cell viability ([9]; 1 nM) was 105%. It also gave a cell viability ([9]; 10 nM) of 104%, a cell viability ([9]; 100 nM) of 0.7% and a cell viability ([9]; 1000 nM) of 0.2%. It also gave a cell viability ([9]; 10000 nM) of 0.5%, a cell viability ([10]; 1 nM) of 110% and a cell viability ([10]; 10 nM) of 67.8%. For the same molecule, the cell viability ([10]; 100 nM) was 51.1%, the cell viability ([10]; 1000 nM) was 42.2% and the cell viability ([10]; 10000 nM) was 41%. The drug sensitivity score [11] was 19.6, the drug sensitivity score [12] was 27.7 and the drug sensitivity score [13] was 19.3. The drug sensitivity score [14] was 30 and the drug sensitivity score [15] was 22.6.

With COc1cc(Nc2ncc(F)c(Nc3ccc4c(n3)NC(=O)C(C)(C)O4)n2)cc(OC)c1OC [R406] the “relative viability EC50” value [1] was > 10 µM, the “relative viability EC50” value [2] was > 10 µM and the “relative viability EC50” value [3] was > 10 µM. For the same molecule, the “relative viability EC50” value [4] was > 10 µM, the “relative viability EC50” value [5] was > 10 µM and the cell viability ([6]; 1 nM) was 100%. The cell viability ([6]; 10 nM) was 99%, the cell viability ([6]; 100 nM) was 93.8% and the cell viability ([6]; 1000 nM) was 91%. For the same molecule, the cell viability ([6]; 10000 nM) was 81.9%, the cell viability ([7]; 1 nM) was 95.8% and the cell viability ([7]; 10 nM) was 100%. It also gave a cell viability ([7]; 100 nM) of 94.3%, a cell viability ([7]; 1000 nM) of 97.8% and a cell viability ([7]; 10000 nM) of 88.9%. The cell viability ([8]; 1 nM) was 85.3%, the cell viability ([8]; 10 nM) was 89.8% and the cell viability ([8]; 100 nM) was 97.6%. It also gave a cell viability ([8]; 1000 nM) of 101%, a cell viability ([8]; 10000 nM) of 85.6% and a cell viability ([9]; 1 nM) of 98.1%. It also gave a cell viability ([9]; 10 nM) of 103%, a cell viability ([9]; 100 nM) of 102% and a cell viability ([9]; 1000 nM) of 92.1%. The cell viability ([9]; 10000 nM) was 88.8%, the cell viability ([10]; 1 nM) was 96.7% and the cell viability ([10]; 10 nM) was 102%. It also gave a cell viability ([10]; 100 nM) of 86.9%, a cell viability ([10]; 1000 nM) of 92.1% and a cell viability ([10]; 10000 nM) of 75.5%. The drug sensitivity score [11] was 0.9, the drug sensitivity score [12] was 0 and the drug sensitivity score [13] was 0.2. It also gave a drug sensitivity score [14] of 0.2 and a drug sensitivity score [15] of 1.7.

In the case of CC(C)=CC[C@@H](O)C1=CC(=O)c2c(O)ccc(O)c2C1=O [Shikonin], the “relative viability EC50” value [1] is reported as 0.29 µM, the “relative viability EC50” value [2] is reported as 0.26 µM and the “relative viability EC50” value [3] is reported as 0.711 µM. The “relative viability EC50” value [4] was 0.313 µM, the “relative viability EC50” value [5] was 0.587 µM and the cell viability ([6]; 1 nM) was 95.8%. For the same molecule, the cell viability ([6]; 10 nM) was 96.3%, the cell viability ([6]; 100 nM) was 91.2% and the cell viability ([6]; 1000 nM) was 6.1%. The cell viability ([6]; 10000 nM) was -0.3%, the cell viability ([7]; 1 nM) was 96.9% and the cell viability ([7]; 10 nM) was 100%. It also gave a cell viability ([7]; 100 nM) of 89.5%, a cell viability ([7]; 1000 nM) of 4.8% and a cell viability ([7]; 10000 nM) of 0.2%. It also gave a cell viability ([8]; 1 nM) of 98.7%, a cell viability ([8]; 10 nM) of 112% and a cell viability ([8]; 100 nM) of 96.5%. For the same molecule, the cell viability ([8]; 1000 nM) was 36.5%, the cell viability ([8]; 10000 nM) was 2% and the cell viability ([9]; 1 nM) was 102%. The cell viability ([9]; 10 nM) was 97.5%, the cell viability ([9]; 100 nM) was 97.4% and the cell viability ([9]; 1000 nM) was 2.2%. For the same molecule, the cell viability ([9]; 10000 nM) was -0.3%, the cell viability ([10]; 1 nM) was 99.6% and the cell viability ([10]; 10 nM) was 103%. For the same molecule, the cell viability ([10]; 100 nM) was 94.3%, the cell viability ([10]; 1000 nM) was 30.6% and the cell viability ([10]; 10000 nM) was 1.1%. It also gave a drug sensitivity score [11] of 18.3, a drug sensitivity score [12] of 18.9 and a drug sensitivity score [13] of 13. The drug sensitivity score [14] was 18 and the drug sensitivity score [15] was 14.1.

For Cc1cc(C(=O)N2Cc3cnn(C)c3Nc3ccccc32)ccc1CNC(=O)N1CCC[C@H]1C(=S)N1CCCN(C)CC1 [TC-OT-39], the “relative viability EC50” value [1] was > 10 µM, the “relative viability EC50” value [2] was > 10 µM and the “relative viability EC50” value [3] was > 10 µM. The “relative viability EC50” value [4] was > 10 µM, the “relative viability EC50” value [5] was > 10 µM and the cell viability ([6]; 1 nM) was 95.3%. The cell viability ([6]; 10 nM) was 98.6%, the cell viability ([6]; 100 nM) was 94.4% and the cell viability ([6]; 1000 nM) was 97.5%. For the same molecule, the cell viability ([6]; 10000 nM) was 102%, the cell viability ([7]; 1 nM) was 97.7% and the cell viability ([7]; 10 nM) was 100%. For the same molecule, the cell viability ([7]; 100 nM) was 106%, the cell viability ([7]; 1000 nM) was 98% and the cell viability ([7]; 10000 nM) was 101%. For the same molecule, the cell viability ([8]; 1 nM) was 98.1%, the cell viability ([8]; 10 nM) was 84.4% and the cell viability ([8]; 100 nM) was 105%. The cell viability ([8]; 1000 nM) was 97.9%, the cell viability ([8]; 10000 nM) was 90% and the cell viability ([9]; 1 nM) was 100%. It also gave a cell viability ([9]; 10 nM) of 90.3%, a cell viability ([9]; 100 nM) of 97% and a cell viability ([9]; 1000 nM) of 104%. It also gave a cell viability ([9]; 10000 nM) of 96.8%, a cell viability ([10]; 1 nM) of 99.8% and a cell viability ([10]; 10 nM) of 92.2%. It also gave a cell viability ([10]; 100 nM) of 98.7%, a cell viability ([10]; 1000 nM) of 106% and a cell viability ([10]; 10000 nM) of 100%. For the same molecule, the drug sensitivity score [11] was 0, the drug sensitivity score [12] was 0 and the drug sensitivity score [13] was 0. The drug sensitivity score [14] was 0 and the drug sensitivity score [15] was 0.

For O=C(O)CC1CC(c2ccccc2)=NO1 (stereo not given) [VGX-1027], the “relative viability EC50” value [1] was > 10 µM, the “relative viability EC50” value [2] was > 10 µM and the “relative viability EC50” value [3] was > 10 µM. For the same molecule, the “relative viability EC50” value [4] was > 10 µM, the “relative viability EC50” value [5] was > 10 µM and the cell viability ([6]; 1 nM) was 94.1%. It also gave a cell viability ([6]; 10 nM) of 94.7%, a cell viability ([6]; 100 nM) of 97.6% and a cell viability ([6]; 1000 nM) of 95%. The cell viability ([6]; 10000 nM) was 102%, the cell viability ([7]; 1 nM) was 101% and the cell viability ([7]; 10 nM) was 94.8%. For the same molecule, the cell viability ([7]; 100 nM) was 97.1%, the cell viability ([7]; 1000 nM) was 103% and the cell viability ([7]; 10000 nM) was 103%. It also gave a cell viability ([8]; 1 nM) of 91.7%, a cell viability ([8]; 10 nM) of 101% and a cell viability ([8]; 100 nM) of 91.8%. The cell viability ([8]; 1000 nM) was 93.7%, the cell viability ([8]; 10000 nM) was 103% and the cell viability ([9]; 1 nM) was 98.1%. The cell viability ([9]; 10 nM) was 93.8%, the cell viability ([9]; 100 nM) was 101% and the cell viability ([9]; 1000 nM) was 104%. It also gave a cell viability ([9]; 10000 nM) of 115%, a cell viability ([10]; 1 nM) of 98.2% and a cell viability ([10]; 10 nM) of 106%. For the same molecule, the cell viability ([10]; 100 nM) was 99.6%, the cell viability ([10]; 1000 nM) was 96.1% and the cell viability ([10]; 10000 nM) was 104%. It also gave a drug sensitivity score [11] of 0, a drug sensitivity score [12] of 0 and a drug sensitivity score [13] of 0. It also gave a drug sensitivity score [14] of 0 and a drug sensitivity score [15] of 0.
